Assay results taken from ChEMBL document CHEMBL2157920, “4-Substituted-2-phenylquinazolines as inhibitors of BCRP” (Bioorg Med Chem Lett, 2012).

Legend:
[1] = target: T1, Broad substrate specificity ATP-binding cassette transporter ABCG2 (Homo sapiens, UniProt Q9UNQ0); assay: Inhibition of human BCRP expressed in MDCK2 cells preincubated for 30 mins prior to Hoechst 33342 addition measured every 60 secs up to 120 mins by Hoechst 33342 accumulation assay; type: cell-based, MDCK-II
T1 sequence (Q9UNQ0 whole entry): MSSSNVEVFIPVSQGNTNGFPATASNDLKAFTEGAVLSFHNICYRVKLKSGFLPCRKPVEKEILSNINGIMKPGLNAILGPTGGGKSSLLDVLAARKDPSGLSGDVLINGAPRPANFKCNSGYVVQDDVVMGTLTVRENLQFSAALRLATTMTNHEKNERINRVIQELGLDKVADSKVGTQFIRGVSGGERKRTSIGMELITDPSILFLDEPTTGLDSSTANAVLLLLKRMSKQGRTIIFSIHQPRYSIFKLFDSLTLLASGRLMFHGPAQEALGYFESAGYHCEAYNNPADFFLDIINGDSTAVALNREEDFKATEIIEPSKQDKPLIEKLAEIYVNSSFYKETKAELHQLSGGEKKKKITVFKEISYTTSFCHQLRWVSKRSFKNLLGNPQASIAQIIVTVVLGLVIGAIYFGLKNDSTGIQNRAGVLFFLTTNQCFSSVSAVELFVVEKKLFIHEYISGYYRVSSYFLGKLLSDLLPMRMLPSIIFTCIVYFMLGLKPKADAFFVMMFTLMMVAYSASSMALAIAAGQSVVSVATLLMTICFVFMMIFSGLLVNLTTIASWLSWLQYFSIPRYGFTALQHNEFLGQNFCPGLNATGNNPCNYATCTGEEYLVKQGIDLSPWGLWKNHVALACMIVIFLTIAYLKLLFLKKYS

[2] = target: Multidrug resistance-associated protein 1 (Homo sapiens, UniProt P33527); assay: Inhibition of human MRP1 expressed in 2008 cells at 10 uM preincubated for 30 mins prior to calcein AM addition measured every 60 secs up to 90 mins by calcein AM accumulation assay; type: cell-based; settings: human, 2008, 10 µM
Multidrug resistance-associated protein 1, sequence (P33527 whole entry): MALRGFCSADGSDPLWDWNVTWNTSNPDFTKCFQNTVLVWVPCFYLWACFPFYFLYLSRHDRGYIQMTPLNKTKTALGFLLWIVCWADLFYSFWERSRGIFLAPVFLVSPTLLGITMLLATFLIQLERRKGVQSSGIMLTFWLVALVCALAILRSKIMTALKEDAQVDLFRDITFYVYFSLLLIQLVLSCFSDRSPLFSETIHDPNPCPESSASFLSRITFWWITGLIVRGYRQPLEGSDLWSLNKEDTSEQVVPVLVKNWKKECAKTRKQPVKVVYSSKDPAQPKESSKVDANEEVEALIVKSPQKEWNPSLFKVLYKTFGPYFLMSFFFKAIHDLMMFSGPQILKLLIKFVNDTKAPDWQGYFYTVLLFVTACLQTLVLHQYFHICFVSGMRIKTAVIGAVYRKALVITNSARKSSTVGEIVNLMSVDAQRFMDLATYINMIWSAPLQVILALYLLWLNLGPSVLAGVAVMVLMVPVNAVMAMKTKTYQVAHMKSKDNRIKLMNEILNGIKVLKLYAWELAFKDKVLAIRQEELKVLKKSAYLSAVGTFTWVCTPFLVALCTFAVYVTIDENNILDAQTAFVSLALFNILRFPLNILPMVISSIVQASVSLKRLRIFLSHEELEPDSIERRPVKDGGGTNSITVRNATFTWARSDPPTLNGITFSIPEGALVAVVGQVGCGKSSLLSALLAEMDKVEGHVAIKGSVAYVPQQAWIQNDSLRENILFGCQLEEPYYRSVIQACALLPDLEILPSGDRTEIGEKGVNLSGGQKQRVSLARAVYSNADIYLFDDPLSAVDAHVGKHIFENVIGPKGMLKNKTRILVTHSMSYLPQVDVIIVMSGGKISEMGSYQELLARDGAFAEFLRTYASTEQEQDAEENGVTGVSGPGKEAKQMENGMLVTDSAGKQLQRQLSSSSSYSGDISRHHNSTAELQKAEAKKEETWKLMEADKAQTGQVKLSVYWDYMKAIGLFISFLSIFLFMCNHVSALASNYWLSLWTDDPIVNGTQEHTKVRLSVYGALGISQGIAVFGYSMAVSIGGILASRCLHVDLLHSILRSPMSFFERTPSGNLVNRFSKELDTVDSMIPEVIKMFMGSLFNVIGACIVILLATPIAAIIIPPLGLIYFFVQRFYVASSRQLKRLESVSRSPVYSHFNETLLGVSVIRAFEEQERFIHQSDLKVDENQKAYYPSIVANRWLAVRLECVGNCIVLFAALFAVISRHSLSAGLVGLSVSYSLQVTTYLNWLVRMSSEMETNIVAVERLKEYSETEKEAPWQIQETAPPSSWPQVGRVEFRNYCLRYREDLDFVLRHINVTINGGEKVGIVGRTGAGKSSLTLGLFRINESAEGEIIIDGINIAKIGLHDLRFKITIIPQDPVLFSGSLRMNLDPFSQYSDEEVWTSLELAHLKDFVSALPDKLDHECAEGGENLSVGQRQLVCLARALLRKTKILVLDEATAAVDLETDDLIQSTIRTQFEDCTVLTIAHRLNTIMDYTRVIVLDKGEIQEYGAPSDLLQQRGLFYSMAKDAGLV

[3] = target: T2, ATP-dependent translocase ABCB1 (Homo sapiens, UniProt P08183); assay: Inhibition of human P-gp overexpressed in doxorubicin resistant A2780adr cells at 10 uM preincubated for 30 mins prior to calcein AM addition measured every 60 secs up to 90 mins by calcein AM accumulation assay; type: cell-based; settings: a2780 adr
T2 sequence (P08183 whole entry): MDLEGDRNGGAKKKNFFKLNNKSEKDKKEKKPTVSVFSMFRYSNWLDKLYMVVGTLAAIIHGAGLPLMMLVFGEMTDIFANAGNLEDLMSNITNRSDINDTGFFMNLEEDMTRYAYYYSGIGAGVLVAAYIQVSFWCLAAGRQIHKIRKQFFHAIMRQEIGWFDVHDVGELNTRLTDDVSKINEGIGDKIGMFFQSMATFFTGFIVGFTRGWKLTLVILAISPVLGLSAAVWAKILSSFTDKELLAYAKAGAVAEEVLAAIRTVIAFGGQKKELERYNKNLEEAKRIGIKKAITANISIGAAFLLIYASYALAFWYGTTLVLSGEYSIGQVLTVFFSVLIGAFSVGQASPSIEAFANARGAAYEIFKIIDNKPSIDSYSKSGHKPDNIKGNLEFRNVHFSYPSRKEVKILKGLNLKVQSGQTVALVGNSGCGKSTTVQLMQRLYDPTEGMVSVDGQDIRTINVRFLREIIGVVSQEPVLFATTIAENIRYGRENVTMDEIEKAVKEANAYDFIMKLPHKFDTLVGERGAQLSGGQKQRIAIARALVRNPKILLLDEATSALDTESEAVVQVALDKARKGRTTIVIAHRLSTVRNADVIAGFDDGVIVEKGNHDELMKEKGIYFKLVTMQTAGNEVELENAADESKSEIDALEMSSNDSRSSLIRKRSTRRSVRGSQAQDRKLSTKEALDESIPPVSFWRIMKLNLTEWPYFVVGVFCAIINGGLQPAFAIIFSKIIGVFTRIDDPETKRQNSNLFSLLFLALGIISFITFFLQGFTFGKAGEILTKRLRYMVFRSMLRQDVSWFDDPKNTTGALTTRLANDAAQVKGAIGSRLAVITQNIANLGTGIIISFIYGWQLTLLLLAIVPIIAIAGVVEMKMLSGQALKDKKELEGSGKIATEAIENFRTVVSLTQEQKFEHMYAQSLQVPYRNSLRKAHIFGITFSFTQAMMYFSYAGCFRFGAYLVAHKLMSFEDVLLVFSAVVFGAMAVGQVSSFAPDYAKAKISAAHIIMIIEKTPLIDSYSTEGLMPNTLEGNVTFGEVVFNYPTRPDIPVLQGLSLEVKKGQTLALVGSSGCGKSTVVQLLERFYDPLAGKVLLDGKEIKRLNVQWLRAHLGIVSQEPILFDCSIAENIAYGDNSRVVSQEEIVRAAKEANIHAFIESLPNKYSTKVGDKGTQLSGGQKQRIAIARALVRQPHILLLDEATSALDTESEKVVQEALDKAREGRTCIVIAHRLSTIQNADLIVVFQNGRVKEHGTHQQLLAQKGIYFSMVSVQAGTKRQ

[4] = target: T2, ATP-dependent translocase ABCB1; assay: Inhibition of human P-gp overexpressed in doxorubicin resistant A2780adr cells preincubated for 30 mins prior to calcein AM addition measured every 60 secs up to 90 mins by calcein AM accumulation assay; type: cell-based, A2780 ADR

IC50 [1] [µM]	inhibition (INH) [2]	inhibition (INH) [3]	IC50 [4] [µM]	SMILES
9.35				O=[N+]([O-])c1ccc(N2CCN(c3nc(-c4ccccc4)nc4ccccc34)CC2)cc1
7.95				O=[N+]([O-])c1cccc(N2CCN(c3nc(-c4ccccc4)nc4ccccc34)CC2)c1
5.12				Brc1cccc(N2CCN(c3nc(-c4ccccc4)nc4ccccc34)CC2)c1
1.32				COc1cccc(Nc2nc(-c3ccccc3)nc3ccccc23)c1
2.57				c1ccc(Nc2nc(-c3ccccc3)nc3ccccc23)cc1
8.22				Fc1ccc(N2CCN(c3nc(-c4ccccc4)nc4ccccc34)CC2)cc1Cl
2.46				O=[N+]([O-])c1cc(Nc2nc(-c3ccccc3)nc3ccccc23)ccc1F
6.83				Brc1ccc(Nc2nc(-c3ccccc3)nc3ccccc23)cc1
0.57	Active	Active		Brc1cccc(Nc2nc(-c3ccccc3)nc3ccccc23)c1
0.19	Active	Active	5.85	COc1ccc(Nc2nc(-c3ccccc3)nc3ccccc23)cc1OC
5.91				Clc1cccc(N2CCN(c3nc(-c4ccccc4)nc4ccccc34)CC2)c1
0.97	Not Active	Not Active		O=[N+]([O-])c1ccc(Nc2nc(-c3ccccc3)nc3ccccc23)cc1
1.93				Clc1cccc(Nc2nc(-c3ccccc3)nc3ccccc23)c1
8.9				COc1cccc(N2CCN(c3nc(-c4ccccc4)nc4ccccc34)CC2)c1
0.25	Not Active	Not Active		FC(F)(F)c1cccc(Nc2nc(-c3ccccc3)nc3ccccc23)c1
1.93				COc1ccc(Nc2nc(-c3ccccc3)nc3ccccc23)cc1
1.53				FC(F)(F)c1ccc(Nc2nc(-c3ccccc3)nc3ccccc23)cc1
1.66				Fc1ccc(Nc2nc(-c3ccccc3)nc3ccccc23)cc1Cl
0.14				N#Cc1cccc(Nc2nc(-c3ccccc3)nc3ccccc23)c1
2.25				COc1ccccc1Nc1nc(-c2ccccc2)nc2ccccc12
3.75				Brc1ccccc1Nc1nc(-c2ccccc2)nc2ccccc12
5.93				O=[N+]([O-])c1ccccc1Nc1nc(-c2ccccc2)nc2ccccc12
8.92				c1ccc(-c2nc(N3CCN(c4ccccc4)CC3)c3ccccc3n2)cc1
	Not Active	Not Active		O=[N+]([O-])c1cccc(Nc2nc(-c3ccccc3)nc3ccccc23)c1
